In patent US12589064B2, “Trolox-peptide conjugate and use thereof” (Caregen Co., Ltd., priority 2019, dated 2026):
Where no end group is shown, it is not given here.

How the values were obtained:
P-smad 1/5/8 protein = assay: BMP2 cell signal transduction: P-smad 1/5/8 in HFDPC (western blot); format: cell-based, human; settings: 50 μM, 50 ng/μl BMP-2, 15 minutes; FIG. 13
Experimental: HFDPCs were dispensed by 3×10^5 in each well of a 6-well plate and cultivated overnight. The medium of the cultivated cells was replaced with a serum-free medium, and the experiments below were performed.
The HFDPC cells were treated with 50 ng/μl of BMP-2 and a Trolox-peptide (SEQ ID NO: 1) conjugate of 5 μM or 50 μM, and additionally cultivated for 15 minutes. Then, western blot was performed using a specific […] to a P-smad 1/5/8 protein which is a subprotein of which expression is controlled by BMP2 cell signal transduction (Cell signaling, USA), and the expression change of a protein was confirmed.

Bcl-2 = assay: Expression of Bcl-2 protein involving cell death in HFDPC (western blot); format: cell-based, human; settings: 50 μM, 24 hours; FIG. 10
Experimental: (§1) HFDPCs were dispensed by 3×10^5 in each well of a 6-well plate and cultivated overnight. The medium of the cultivated cells was replaced with a serum-free medium, treatment with Trolox of 50 μM, a Trolox-peptide (SEQ ID NO: 2) conjugate of 50 μM, or a Trolox-peptide (SEQ ID NO: 3) conjugate of 50 μM, was performed for each, and additional cultivation was performed for 24 hours. Then, protein expression change was confirmed by performing western blot using a specific antibody to Bcl-2 and Bax proteins (Santacruz biotechnology, USA).

Bax = assay: Expression of Bax protein involving cell death in HFDPC (western blot); format: cell-based, human; settings: 50 μM, 24 hours; FIG. 10
Experimental: as §1

HaCaT human keratinocyte = assay: Cell proliferation of HaCaT human keratinocyte (MTT); format: cell-based; settings: 0.5 μM, 5 μM or 50 μM, serum-free medium, 3 days, FIG. 5
Experimental: (§2) Human hair follicle dermal papilla cells (HFDPC) and HaCaT which is human keratinocyte were dispensed by 2×10^3 in each well of a 96-well plate and cultivated overnight. The medium of the cultivated cells was replaced with a serum-free medium, and treatment with Trolox-peptide conjugates of 0.5 μM, 5 μM or 50 μM were performed, and additional cultivation was performed for 3 days. Then, in order to confirm the proliferation of the cells, 4 mg/ml of 3-(4,5-dimethylthiazol-2-yl)-2,5-diphenyltetrazolium bromide (MTT) was put to the wells by 100 μl each and reacted for 4 hours. Formazan thus produced was treated with DMSO and dissolved, and light absorbance at 560 nm was measured using a microplate reader. In this case, as a positive control, 1 μM of IGF-1 or EGF, which is known as a growth factor promoting the proliferation of HFDPC and HaCaT cells was used, and as a comparison group, single compounds of Trolox and a peptide having the amino acid sequences of SEQ ID NO: 1 to SEQ ID NO: 3, having the same amounts as the Trolox-peptide conjugate of the present invention, were used.

[1] = test system: Human hair follicle dermal papilla cells (HFDPC); assay: Cell proliferation of HFDPC (MTT); format: cell-based; settings: 0.5 μM, 5 μM or 50 μM, serum-free medium, 3 days, FIG. 4
Experimental: as §2

Compound	level of expression of the P-smad 1/5/8 protein increased by the treatment with BMP2 (P-smad 1/5/8 protein)	expression of Bcl-2 (Bcl-2)	expression of Bax (Bax)	cell proliferation of HaCaT (HaCaT human keratinocyte)	cell proliferation of HFDPC [1]
Trolox-peptide (SEQ ID NO: 1) conjugate: Trolox chemically bonded to the peptide Glu-Leu-Ile-Glu-His-Gly-Gly-Gly-Arg-Pro-Ala-Asp (SEQ ID NO: 1) (ELIEHGGGRPAD; not fully specified (N-terminus); printed as Glu-Leu-Ile-Glu-His-Gly-Gly-Gly-Arg-Pro-Ala-Asp; also: Trolox chemically bonded, site not given here)	reduced	–	–	–	–
Cc1c(C)c2c(c(C)c1O)CCC(C)(C(=O)O)O2 (centres unmarked) [Trolox, 6-hydroxy-2,5,7,8-tetramethylchromane-2-carboxylic acid]	–	no change	increased	rarely showed cell proliferation effects	rarely showed cell proliferation effects
